Test results as given in article PMC10892423 (Pharmaceutics, 2024).

Tests used:
[1] = system: MBL-producing P. aeruginosa clinical isolates; assay: MIC by broth microdilution (CLSI); format: cell-based, Pseudomonas aeruginosa; settings: for MIC: Pseudomonas aeruginosa
Protocol: The DMSO stock solutions of the test compounds were serially diluted to the desired concentrations in CAMHB. Then, 10 μL of the bacterial suspension (5 × 10^5 colony forming units (CFU)/mL) was combined with 200 μL of DMSO stock solutions of the test compounds in 96-well microtiter plates (1% DMSO, final). After the incubation of the plate at 37 °C for 24 h, bacterial growth was visibly evaluated by monitoring the turbidity of the resulting suspension, and the MICs were determined as the lowest concentrations of the test compounds that inhibited the visible growth of the bacteria.

NDM-1 = molecular target: T1, NDM-1 (Klebsiella pneumoniae, UniProt C7C422); assay: β-lactamase inhibition, imipenem hydrolysis; format: biochemical; settings: imipenem substrate; read-out: β-Lactamases, IC50 NDM-1
T1 construct: purchased RayBiotech, Inc. 230-00554
Text: (§1) Recombinant AmpC from Escherichia coli was produced according to a previously reported protocol. KPC-2 and NDM-1 […] were purchased from LifeSpan Biosciences, Inc. (Lynnwood, WA, USA) (LS-G26598) and RayBiotech, Inc. (Peachtree Corners, GA, USA) (230-00554), respectively. Genes encoding OXA-48 (residues 23–265) and VIM-2 (residues 27–266) were custom-synthesized (Bioneer Inc., Seoul, Republic of Korea) and expressed as previously described. The β-lactamase inhibitory activity of the title compounds was then determined according to the previously reported methods. Briefly, equal volumes (100 μL) of the title compounds (70–0.1 μM in PBS) and diluted enzyme stock were mixed (final concentration 2% of DMSO in 200 μL) in 96-well plates, which were then incubated at 37 °C for 20 min. The incubated mixture was added to each well containing substrates (nitrocefin for AmpC, KPC-2, OXA-48, and VIM-2; and imipenem for NDM-1) of final concentrations of 70 μM for nitrocefin and 100 μM for imipenem. Substrate hydrolysis was monitored at 486 nm (nitrocefin) or 300 nm (imipenem) for 15 min, using a Cytation 5 imaging multimode reader (BioTek Instruments Inc., Winooski, VT, USA). At the plateau level of hydrolysis, the corresponding rates of hydrolysis were compared to those obtained without inhibitors (100%) to determine the percentage of enzyme inhibition at each concentration of the title compounds. The IC50 values of the compounds were derived from sigmoidal dose–response curves, using GraphPad Prism 5 (GraphPad Software, Boston, MA, USA).

KPC-2 = molecular target: T2, KPC-2 (Klebsiella pneumoniae, UniProt Q9F663); assay: β-lactamase inhibition, nitrocefin hydrolysis; format: biochemical; settings: nitrocefin substrate; read-out: β-Lactamases, IC50 KPC-2
T2 construct: purchased LifeSpan Biosciences, Inc. LS-G26598
Text: as §1

OXA-48 = molecular target: T3, OXA-48 (Klebsiella pneumoniae, UniProt Q6XEC0); assay: β-lactamase inhibition, nitrocefin hydrolysis; format: biochemical; settings: nitrocefin substrate; read-out: β-Lactamases, IC50 OXA-48
T3 construct: Genes encoding OXA-48 (residues 23–265) and VIM-2 (residues 27–266) were custom-synthesized; made in house
Text: as §1

VIM-2 = molecular target: T4, VIM-2 (Escherichia coli, UniProt Q5U7L7); assay: β-lactamase inhibition, nitrocefin hydrolysis; format: biochemical; settings: nitrocefin substrate; read-out: β-Lactamases, IC50 VIM-2
T4 construct: Genes encoding OXA-48 (residues 23–265) and VIM-2 (residues 27–266) were custom-synthesized; made in house
Text: as §1

AmpC = molecular target: T5, AmpC (Escherichia coli, UniProt P00811); assay: β-lactamase inhibition, nitrocefin hydrolysis; format: biochemical
T5 construct: made in house
Text: as §1

T2 sequence (Q9F663 25-293, looked up): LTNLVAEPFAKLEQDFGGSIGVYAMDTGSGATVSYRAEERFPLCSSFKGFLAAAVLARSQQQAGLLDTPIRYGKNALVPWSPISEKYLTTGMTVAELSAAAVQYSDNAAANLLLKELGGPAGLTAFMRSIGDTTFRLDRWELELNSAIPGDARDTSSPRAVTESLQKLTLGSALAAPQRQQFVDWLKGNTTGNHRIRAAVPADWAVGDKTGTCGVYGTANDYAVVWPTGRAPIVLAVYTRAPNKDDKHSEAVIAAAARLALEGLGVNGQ
T1 sequence (C7C422 29-270, looked up, species assumed): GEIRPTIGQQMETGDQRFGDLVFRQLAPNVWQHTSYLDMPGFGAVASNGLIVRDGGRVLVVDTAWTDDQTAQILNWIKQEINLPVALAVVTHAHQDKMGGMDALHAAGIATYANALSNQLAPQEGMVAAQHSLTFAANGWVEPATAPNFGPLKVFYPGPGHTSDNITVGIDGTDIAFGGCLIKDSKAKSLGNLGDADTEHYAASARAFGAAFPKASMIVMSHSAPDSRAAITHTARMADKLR
T5 sequence (P00811 20-377): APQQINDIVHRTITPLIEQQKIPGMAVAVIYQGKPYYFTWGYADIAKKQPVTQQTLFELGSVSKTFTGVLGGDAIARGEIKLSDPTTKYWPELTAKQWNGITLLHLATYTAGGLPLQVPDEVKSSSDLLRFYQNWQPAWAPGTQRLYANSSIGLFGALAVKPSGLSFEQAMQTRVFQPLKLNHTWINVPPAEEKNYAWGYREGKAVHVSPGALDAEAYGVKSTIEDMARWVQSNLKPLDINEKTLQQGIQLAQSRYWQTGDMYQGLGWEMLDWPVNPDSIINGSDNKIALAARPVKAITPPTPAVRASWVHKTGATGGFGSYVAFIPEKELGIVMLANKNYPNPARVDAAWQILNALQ
T3 sequence (Q6XEC0 23-265 limits assumed): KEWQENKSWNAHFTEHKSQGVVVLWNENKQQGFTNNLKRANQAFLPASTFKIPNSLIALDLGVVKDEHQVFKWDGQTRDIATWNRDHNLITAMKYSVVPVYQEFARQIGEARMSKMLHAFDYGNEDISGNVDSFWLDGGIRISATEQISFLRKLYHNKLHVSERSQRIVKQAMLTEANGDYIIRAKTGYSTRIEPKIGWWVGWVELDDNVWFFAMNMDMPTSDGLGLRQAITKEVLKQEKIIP

## colistin [CST]
[1]; PA-001, blaNDM
  MIC Value: ≤1 µg/mL
[1]; PA-002, blaIMP
  MIC Value: ≤1 µg/mL
[1]; PA-007, blaNDM
  MIC Value: ≤1 µg/mL
[1]; PA-008, blaNDM
  MIC Value: ≤1 µg/mL
[1]; PA-011, blaNDM
  MIC Value: ≤1 µg/mL
[1]; PA-012, blaNDM
  MIC Value: ≤1 µg/mL
[1]; PA-016, blaIMP
  MIC Value: ≤1 µg/mL
[1]; PA-017, blaNDM
  MIC Value: ≤1 µg/mL
[1]; PA-019, blaNDM
  MIC Value: ≤1 µg/mL
[1]; PA-020, blaNDM
  MIC Value: ≤1 µg/mL
[1]; PA-023, blaNDM
  MIC Value: ≤1 µg/mL
[1]; PA-025, blaNDM
  MIC Value: ≤1 µg/mL
[1]; PA-027, blaIMP
  MIC Value: ≤1 µg/mL
[1]; PA-028, blaNDM
  MIC Value: ≤1 µg/mL
[1]; PA-029, blaIMP
  MIC Value: ≤1 µg/mL
[1]; PA-030, blaIMP
  MIC Value: ≤1 µg/mL
[1]; PA-034, blaNDM
  MIC Value: ≤1 µg/mL
[1]; PA-036, blaNDM
  MIC Value: ≤1 µg/mL
[1]; PA-038, blaNDM
  MIC Value: ≤1 µg/mL
[1]; PA-039, blaNDM
  MIC Value: ≤1 µg/mL
[1]; PA-044, blaNDM
  MIC Value: ≤1 µg/mL

## CC(C)CCOc1c(-c2ccc(F)c(F)c2)oc2cc(O)cc(O)c2c1=O [Compound 24]
NDM-1
  IC50: > 50 µM
KPC-2
  IC50: 39.4 µM
OXA-48
  IC50: 19.1 µM
VIM-2
  IC50: 42.1 µM
AmpC
  IC50: > 50 µM

## O=c1c(OCCO)c(-c2ccc(F)c(F)c2)oc2cc(O)cc(O)c12 [Compound 8]
NDM-1
  IC50: > 50 µM
KPC-2
  IC50: > 50 µM
OXA-48
  IC50: > 100 µM
VIM-2
  IC50: > 100 µM
AmpC
  IC50: > 50 µM

## O=c1c(OCCC2CCOCC2)c(-c2ccc(F)c(F)c2)oc2cc(O)cc(O)c12 [Compound 30]
NDM-1
  IC50: > 50 µM
KPC-2
  IC50: > 50 µM
OXA-48
  IC50: 35.9 µM
VIM-2
  IC50: > 100 µM
AmpC
  IC50: > 50 µM

## C[C@@H](O)[C@H]1C(=O)N2C(C(=O)O)=C(S[C@@H]3CN[C@H](C(=O)N(C)C)C3)[C@H](C)[C@H]12 [MEM, meropenem]
[1]; PA-001, blaNDM
  MIC: > 32 µg/mL
[1]; PA-002, blaIMP
  MIC: > 32 µg/mL
[1]; PA-007, blaNDM
  MIC: > 32 µg/mL
[1]; PA-008, blaNDM
  MIC: > 32 µg/mL
[1]; PA-011, blaNDM
  MIC: > 32 µg/mL
[1]; PA-012, blaNDM
  MIC: > 32 µg/mL
[1]; PA-016, blaIMP
  MIC: > 32 µg/mL
[1]; PA-017, blaNDM
  MIC: > 32 µg/mL
[1]; PA-019, blaNDM
  MIC: > 32 µg/mL
[1]; PA-020, blaNDM
  MIC: > 32 µg/mL
[1]; PA-023, blaNDM
  MIC: > 32 µg/mL
[1]; PA-025, blaNDM
  MIC: > 32 µg/mL
[1]; PA-027, blaIMP
  MIC: > 32 µg/mL
[1]; PA-028, blaNDM
  MIC: > 32 µg/mL
[1]; PA-029, blaIMP
  MIC: > 32 µg/mL
[1]; PA-030, blaIMP
  MIC: > 32 µg/mL
[1]; PA-034, blaNDM
  MIC: > 32 µg/mL
[1]; PA-036, blaNDM
  MIC: > 32 µg/mL
[1]; PA-038, blaNDM
  MIC: > 32 µg/mL
[1]; PA-039, blaNDM
  MIC: > 32 µg/mL
[1]; PA-044, blaNDM
  MIC: > 32 µg/mL

## C[N+](C)(CCOc1c(-c2ccc(F)c(F)c2)oc2cc(O)cc(O)c2c1=O)CC(=O)[O-] [Compound 15]
NDM-1
  IC50: > 50 µM
KPC-2
  IC50: > 50 µM
OXA-48
  IC50: > 100 µM
VIM-2
  IC50: > 100 µM
AmpC
  IC50: > 50 µM

## CC(C)OC(=O)OCOc1c(-c2ccc(F)c(F)c2)oc2cc(O)cc(O)c2c1=O [Compound 5]
NDM-1
  IC50: > 50 µM
KPC-2
  IC50: > 50 µM
OXA-48
  IC50: 42.7 µM
VIM-2
  IC50: > 100 µM
AmpC
  IC50: > 50 µM

## CC(C)(C)C(=O)OCOc1c(-c2ccc(F)c(F)c2)oc2cc(O)cc(O)c2c1=O [Compound 4]
NDM-1
  IC50: 15.7 µM
KPC-2
  IC50: 33.2 µM
OXA-48
  IC50: 28.7 µM
VIM-2
  IC50: 19.3 µM
AmpC
  IC50: 25.4 µM
